Measured values taken from patent US6559125B1, “Polyamide-alkylator conjugates and related products and method” (priority 2000, dated 2003).

What was measured:
[1] = water, pH 7.5, 37° C.; cited from earlier work
[2] = target: DNA; conditions: from previous reports; cited from earlier work
[3] = test system: match binding sites (5′-WGCWGCW-3′) on a 241 bp restriction fragment derived from the HIV-1 promoter region; test: Quantitative DNase I footprint titration; conditions: for equilibrium association constant Ka: 22° C., pH 7.0
Experimental: Jones, K. A. & Peterlin, B. M. (1994), Annual Review of Biochemistry 63, 717-743. Left, storage phosphor autodiograms of 8% denaturing polyacrylamide gels used to separate the fragments generated by DNase I digestion. All reactions contained 20,000 cpm restriction fragment, 10 mM Tris.HCl (pH 7.0), 10 mM KCl, 10 MM MgCl2 and 5 mM CaCl and were performed at 22° C. Lane 1, intact DNA; lane 2, A-specific reaction; lane 3, G-specific reaction; lane 4, DNase I standard; lanes 5-17, 1 pM, 2 pM, 5 pM, 10 pM, 20 pM, 50 pM, 100 pM, 200 pM, 500 pM, 1 nM, 2 nM, 5 nM, 10 nM, respectively. The 5′-AGCTGCT-3′ (A), 5′-TGCAGCA-3′ (B), and 5′-TGCTGCT-3′ (E) match sites are shown in boxes on the right side of the autoradiogram (SEQ ID NO:4).
FIG. 5(b) depicts data from quantitative DNase I footprint titration experiments for ImPy-β-ImPy-(R)^CHL(OH)γ-ImPy-βImPy-β-Dp (3) binding to the 5′-AGCTGCT-3′ (A) and 5′-TGCAGCA-3′ sites (B). θnorm points were obtained using storage phosphor autoradiography and processed as described in the experimental section The data for the binding of 3 to 5′-AGCTGCT-3′ is indicated by red circles and binding to 5′-TGCAGCA-3′ by blue circles. The solid curves are best-fit Langmuir binding titration isotherms obtained from a nonlinear least-squares algorithm eq 2 (n=1).
All reactions were executed in a total volume of 400 μl. […]
Data from the footprint titration gels were obtained using a Molecular Dynamics 400S PhosphorImager followed by quantitation using ImageQuant software (Molecular Dynamics). […] The apparent fractional occupancy (θapp) of the sites were calculated using the equation: [formula] […]
where [L]tot is the total polyamide concentration, Ka is the equilibrium association constant, and θmin and θmax are the experimentally determined site saturation values when the site is unoccupied or saturated, respectively. […]

[4] = test system: match binding sites (5′-WGCWGCW-3′) on a 241 bp restriction fragment derived from the HIV-1 promoter region; conditions: sequence 5′-WGCWGCW-3′ in the HIV promoter; literature value; cited from earlier work
[5] = test system: HIV; conditions: cell culture; cited from earlier work

Question: For O=C(O)CCCc1ccc(N(CCCl)CCCl)cc1 [chlorambucil, 4-[bis(2-chloroethyl)amino]benzene butanoic acid], which “half life for hydrolysis of the bis(dichloroethylamino)benzene moiety” value [1] is on record?
Answer: approximately 1.3 hours

Question: Which binding affinity [2] does the source give for “ImImPyPy-(R)^H^2^Nγ-ImPyPyPy-β-Dp [polyamide 1′]” here?
Answer: subnanomolar

Question: For “ImPy-β-ImPy-(R)^CHL(OH)γ-ImPy-β-ImPy-β-Dp [compound 3]”, which “equilibrium association constant Ka” value ([3]; match site 5′-AGCTGCT-3′) is on record?
Answer: 1.6±0.7×10^10 M^−1

Question: And the “equilibrium association constant Ka” value ([3]; match site 5′-TGCAGCA-3′)?
Answer: 1.3±0.7×10^10 M^−1

Question: What about the “affinities for double base pair mismatch sites, fold lower than for the match sites” value ([3]; mismatch sites 5′-TGTCGCC-3′ and 5′-AGCAGCTC-3′) of the same molecule?
Answer: > 100 fold

Question: Which “binding affinity Ka of unsubstituted polyamide” value [4] does the source give for “ImPy-β-ImPy-γ-ImPy-β-ImPy-β-Dp [polyamide 1]” here?
Answer: 2e+10 M⁻¹

Question: What about the “inhibition of HIV replication” value [5] of the same molecule?
Answer: inhbit HIV replication
